Reference: PubChem BioAssay (NCI)
Several values for one entry are separate records, joined by “and”; a condition that tells them apart may be missing. Equal entries are not always repeated.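 The compound was tested at five concentrations on cells cultured in 96-well plates, with a 48-hour exposure period. The concentration for 50% growth inhibition is given as GI50. TGI: concentration producing complete growth inhibition.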

Test system: CCRF-CEM leukemia
Assay: NCI anticancer screen, dose series, 48 h

Compound	TGI	GI50 [nM]
O=[n+]1c2c(n([O-])c3ccccc31)CCCCCCCCCC2	> 100000 nM	–
O=C(OCc1ccc2cccc(O)c2n1)N1CCN(C(=O)c2cc3cc(F)ccc3[nH]2)CC1	995 nM	242
C=C(F)C(=O)N1CCN(c2nc(OC[C@@H]3CCCN3C)nc3c2CCN(c2cccc4cccc(Cl)c24)C3)C[C@@H]1CC#N	4320 nM	1050
Cc1c2cccnc2c(C)c2c1c1cc(CO)ccc1n2C	45700 nM	1870
CCCCN(CCCC)CC(C(=O)Nc1ccc([N+](=O)[O-])cc1[N+](=O)[O-])/C(C)=N\NC(=S)NN (stereo not given)	> 100000 nM	–
S=C(N/N=C/c1ccco1)NC12CC3CC(CC(C3)C1)C2	> 100000 nM	–
CS(=O)(=O)N/N=C/CN1C(=O)c2ccccc2C1=O	> 100000 nM	–
Ic1ccc(Nc2nc3nonc3nc2Nc2ccc(I)cc2)cc1	> 100000 nM	145
CC(SC(C)C(=O)N/N=C/c1cccc(Cl)c1)C(=O)N/N=C\c1cccc(Cl)c1 (stereo not given)	52300 nM	5770
CCOC(=O)/C=C/C(C(=O)/C=C/c1ccc(OC2CCCCO2)c(OC)c1)=C(O)\C=C\c1ccc(OC2CCCCO2)c(OC)c1 (stereo not given)	8350 nM	2690
O=C1c2ccccc2C2(Br)C(=O)c3ccccc3C12 (stereo not given)	> 100000 nM	–
CCN1CCN(c2ccc(Nc3cc(N(C)C(=O)Nc4c(Cl)c(OC)cc(OC)c4Cl)ncn3)cc2)CC1	6010 nM	1900
COC(=O)c1cc2c(cc1O)[C@@H](NC(C)=O)CCc1cc(OC)c(OC)c(OC)c1-2	> 100000 nM	39.8
CC(C)(C)OC(=O)NCC(=O)OCc1ccccc1	> 100000 nM	–
CSc1nc2c(nc(C)c(=O)n2C2OCC(OC(C)=O)C(OC(C)=O)C2OC(C)=O)c(=O)[nH]1 (stereo not given)	> 100000 nM	–
O=S(O)CCCCSSCC(O)C(O)CSSCCCCS(=O)O (stereo not given)	31900 nM and 26200 nM	–
O=C1OC(c2ccccc2)=N/C1=C/C=C/c1ccco1	> 100000 nM	–
CC1OC2CC(=O)OC2C2=C1C(=O)c1c(O)cccc1C2=O (stereo not given)	501 nM	26.9
C=C(C)[C@@]12OC3(/C=C/C=C/CCCCC)O[C@@H]1[C@@H]1[C@@H]4O[C@]4(CO)[C@@H](O)[C@]4(O)C(=O)C(C)=C[C@H]4[C@@]1(O3)[C@H](C)[C@H]2OC(=O)c1ccccc1	2660 nM	< 10

Test system: HOP-92 NSCLC
Assay: NCI anticancer screen, dose series, 48 h

Compound	TGI	GI50
O=[n+]1c2c(n([O-])c3ccccc31)CCCCCCCCCC2	> 100000 nM	–
O=C(OCc1ccc2cccc(O)c2n1)N1CCN(C(=O)c2cc3cc(F)ccc3[nH]2)CC1	1940 nM	383 nM
OCCN1CN(CCO)CN(c2nc(N3CN(CCO)CN(CCO)C3)nc(N3CN(CCO)CN(CCO)C3)n2)C1	4.52 ng/mL	1.85 ng/mL
C=C(F)C(=O)N1CCN(c2nc(OC[C@@H]3CCCN3C)nc3c2CCN(c2cccc4cccc(Cl)c24)C3)C[C@@H]1CC#N	1850 nM	437 nM
Cc1c2cccnc2c(C)c2c1c1cc(CO)ccc1n2C	7310 nM	2100 nM
CCCCN(CCCC)CC(C(=O)Nc1ccc([N+](=O)[O-])cc1[N+](=O)[O-])/C(C)=N\NC(=S)NN (stereo not given)	> 100000 nM	–
S=C(N/N=C/c1ccco1)NC12CC3CC(CC(C3)C1)C2	> 100000 nM	–
Ic1ccc(Nc2nc3nonc3nc2Nc2ccc(I)cc2)cc1	458 nM	40.8 nM
CCOC(=O)/C=C/C(C(=O)/C=C/c1ccc(OC2CCCCO2)c(OC)c1)=C(O)\C=C\c1ccc(OC2CCCCO2)c(OC)c1 (stereo not given)	58200 nM	20200 nM
O=C1c2ccccc2C2(Br)C(=O)c3ccccc3C12 (stereo not given)	> 100000 nM	–
CCN1CCN(c2ccc(Nc3cc(N(C)C(=O)Nc4c(Cl)c(OC)cc(OC)c4Cl)ncn3)cc2)CC1	27300 nM	2280 nM
CCOC(=O)Oc1c(OC)cc(C(=O)NC2CCc3cc(OC)c(OC)c(OC)c3-c3ccc(SC)c(=O)cc32)cc1OC (stereo not given)	871 nM	–
COC(=O)c1cc2c(cc1O)[C@@H](NC(C)=O)CCc1cc(OC)c(OC)c(OC)c1-2	8750 nM	–
CC(C)(C)OC(=O)NCC(=O)OCc1ccccc1	> 100000 nM	–
CSc1nc2c(nc(C)c(=O)n2C2OCC(OC(C)=O)C(OC(C)=O)C2OC(C)=O)c(=O)[nH]1 (stereo not given)	> 100000 nM	–
O=S(O)CCCCSSCC(O)C(O)CSSCCCCS(=O)O (stereo not given)	79700 nM and 96500 nM	–
O=C1OC(c2ccccc2)=N/C1=C/C=C/c1ccco1	> 100000 nM	–
CC1OC2CC(=O)OC2C2=C1C(=O)c1c(O)cccc1C2=O (stereo not given)	315 nM	151 nM
CCC[CH2][Sn]([CH2]CCC)([CH2]CCC)[O]C(=O)CC	429 nM	137 nM
C=C(C)[C@@]12OC3(/C=C/C=C/CCCCC)O[C@@H]1[C@@H]1[C@@H]4O[C@]4(CO)[C@@H](O)[C@]4(O)C(=O)C(C)=C[C@H]4[C@@]1(O3)[C@H](C)[C@H]2OC(=O)c1ccccc1	2130 nM	< 10 nM
C/C(=C\CCc1ccoc1)CC/C=C(\C)CCCC1=CC(=O)OC1	13000 nM	2090 nM
C=CC1CC12C(=O)C1OC2(C)C2C(=O)c3cc4ccccc4cc3C(=O)C12 (stereo not given)	95300 nM	20900 nM

Test system: NCI-H226 lung
Assay: NCI anticancer screen, dose series, 48 h

Compound	TGI	GI50 [nM]
O=[n+]1c2c(n([O-])c3ccccc31)CCCCCCCCCC2	61800 nM	–
OCCN1CN(CCO)CN(c2nc(N3CN(CCO)CN(CCO)C3)nc(N3CN(CCO)CN(CCO)C3)n2)C1	0.63 ng/mL	–
Cc1c2cccnc2c(C)c2c1c1cc(CO)ccc1n2C	1330 nM	264
CCCCN(CCCC)CC(C(=O)Nc1ccc([N+](=O)[O-])cc1[N+](=O)[O-])/C(C)=N\NC(=S)NN (stereo not given)	> 100000 nM	–
S=C(N/N=C/c1ccco1)NC12CC3CC(CC(C3)C1)C2	> 100000 nM	–
CS(=O)(=O)N/N=C/CN1C(=O)c2ccccc2C1=O	> 100000 nM	–
CC(SC(C)C(=O)N/N=C/c1cccc(Cl)c1)C(=O)N/N=C\c1cccc(Cl)c1 (stereo not given)	43100 nM	17500
CCOC(=O)/C=C/C(C(=O)/C=C/c1ccc(OC2CCCCO2)c(OC)c1)=C(O)\C=C\c1ccc(OC2CCCCO2)c(OC)c1 (stereo not given)	34700 nM	12900
CCOC(=O)Oc1c(OC)cc(C(=O)NC2CCc3cc(OC)c(OC)c(OC)c3-c3ccc(SC)c(=O)cc32)cc1OC (stereo not given)	97.4 nM and 24.2 nM	7.09
COC(=O)c1cc2c(cc1O)[C@@H](NC(C)=O)CCc1cc(OC)c(OC)c(OC)c1-2	–	30.9
CC(C)(C)[SiH]12(OC(C(F)(F)F)(C(F)(F)F)c3ccccc31)OC(C(F)(F)F)(C(F)(F)F)c1ccccc12	5050 nM	–
CC1OC2CC(=O)OC2C2=C1C(=O)c1c(O)cccc1C2=O (stereo not given)	929 nM	454
